Reference: paper PMC10510102, “Efficient Ligand Discovery Using Sulfur(VI) Fluoride Reactive Fragments” (ACS Chemical Biology, 2023)

Key:
[1] = target: T1, BCL6 BTB/POZ domain (Homo sapiens, UniProt P41182, C67R/C84N/C8Q); test: Conventional differential scanning fluorimetry (DSF); assay type: binding; parameters: hBCL6-Flag 3Cmut (5-129) produced in house; FLAG (C); made in house; conditions: for Tm: 10 μM protein, covalent complex (500 μM SF, 6 or 24 h) or 200 μM GSK137, mean ± SD, three replicates; for ΔTm: relative to unmodified BCL6
Protocol: We subsequently analyzed protein-fragment interactions using differential scanning fluorimetry (DSF) to explore the impact of these binding events on protein stability.[45] […] […]; this illustrates the impact of covalent modification on protein–ligand binding. […]
8.2. Conventional differential scanning fluorimetry (DSF)
BCL6-SF covalent complex preparation:
SFs 2f–i, 2p, 2q, 2s, and 2t in DMSO-d 6 (200 mM stock) or pure DMSO-d 6 were added to crystallizable BCL6 BTB/POZ domain (10 µM) in 20 mM Tris pH 8.5 and 200 mM NaCl. The reactions were incubated at 20 °C for 6 h (meta-substituted benzamide fragments) or 24 h (azetidinyl/piperidinyl fragments). Final concentrations: 10 µM protein, 500 µM SF, DMSO 0.25% v/v in 200 µL. Unreacted compound and DMSO-d 6 were removed by buffer-exchanging protein solutions into 20 mM Tris pH 8.5, 200 mM NaCl and 5% v/v glycerol inside Vivaspin 500 PES Centrifugal Concentration units. The protein was concentrated to 0.6–1.3 mg/mL within the units, according to UV-vis absorption spectrophotometry via a Nanodrop ND-1000 instrument. Protein was flash frozen using a dry ice/ethanol bath prior to […]
Differential scanning fluorimetry assay:
GSK137 (40 mM stock) or pure DMSO-d 6 were added to crystallizable BCL6 BTB/POZ domain (11 µM) in 20 mM Tris pH 8.5, 200 mM NaCl and 5% v/v glycerol to give solutions containing: 11 µM protein, DMSO 0.63% v/v and 222 µM GSK137 (where applicable).
Concentrated protein-SF complexes were also thawed and diluted to 11 µM in 20 mM Tris pH 8.5, […] and 5% v/v glycerol.
SYPRO Orange dye (Invitrogen S6650) in extra dilution buffer (50×, eq. 1% v/v DMSO) was added to give assay-ready solutions with final concentrations: 10 µM protein, SYPRO 5×, DMSO 0.1% v/v in volume 80 µL for the protein-SF covalent complexes or 10 µM protein, SYPRO 5×, DMSO 0.6% v/v in volume 100 µL with and without 200 µM GSK137.
Each solution was aliquoted (3 × 20 µL) into wells of an opaque 384-well PCR microplate (Axygen PCR-384-LC480-W) and coated with silicone oil DC 200 (5 µL; Fluka Chemicals 85413). The microplate was centrifuged (1 min, 200 g) prior to insertion into a Fluodia T70 spectrophotometer (Photal Instruments). The fluorescence intensity was detected (emission wavelength: […]) as the plate instrument interior was heated from 27–75 °C using a temperature stepping mode (waiting time before measurement: 60 s; fluorescence measurement interval: 45 s). The approximate temperature gradient was 0.5 °C min-1.
The fluorescence intensity data from the individual replicates of each sample type were normalized and identically truncated within GraphPad Prism 5.0.4.11 These values were subsequently fitted to equation (4) corresponding to a Boltzmann sigmoid in order to obtain the melting temperature (“V50”; T m) of the protein:
Y=BOTTOM+((TOP+BOTTOM)/(1+exp((V50–X)/SLOPE))) (4)
The three obtained T m values were averaged to give a final T m value in each case. The normalized fluorescence data for the three replicates of each sample were averaged to yield a single dataset for each case, which were then plotted in GraphPad Prism 5.0.4 to give the plots shown in the manuscript.11
Table S9. Thermal melting temperatures of unmodified and covalently modified BCL6 BTB/POZ domain as determined by differential scanning fluorimetry measurements.
The arithmetic mean and standard deviation from three replicates are shown.
Hit Chemotype Protein Species Tm / °C ΔT m / °C […]
meta-Substituted Benzamide BCL6 + 2g 70.4 ± 0.3 +11.7
Azetidinyl Fragments BCL6 + 2h 55.5 ± 0.1 −3.2 […]
8.3. Protocol for kinetic analyzes (BCL6)
The (resynthesized and purified) SF hits (2f–i) were plated into seven Greiner 384 white low volume plate from a 10 mM source in DMSO. Differing volumes were added such that the final concentrations for each compound would be: 100, 50, 20, 10, or 5 µM after adding 15 µL of protein stock solution per well. […]

[2] = target: T1, BCL6 BTB/POZ domain; test: Displacement study with GSK137, intact protein LC-MS; assay type: binding; parameters: hBCL6-Flag-6H-Avi 3Cmut (5–129) produced as part of the GSK/GenScript collaboration; Flag (C); 6H (His6) (C); Avi (C); conditions: for Modification (GSK137 treatment) / Modification (DMSO-d6 treatment): 1 μM protein, 50 μM SF, 20 °C, 24 h, average of duplicate; for Modification (GSK137 treatment): 50 μM GSK137; for Displacement Ratio: DModification/Modification(DMSO-d6 treatment); for Displacement: attenuation of covalent modification by GSK137; for DModification: difference DMSO-d6 vs GSK137 treatment
Source text: With additional hits identified from the iterative screen, we sought to obtain further structural and biophysical information to better understand how these reactive fragments bind to BCL6. A total of eight SF hits were resynthesized and purified: the four from the original screen (2f–i) and four from the iterative screen (2p, 2q, 2s, and 2t). […]
8. BCL6 – Further investigations into hits by structural and biophysical studies
8.1. Displacement study with GSK137
The (resynthesized and purified) SF hits (2f–i, 2p, 2q, 2s, and 2t) were plated into a Greiner 384 white low volume plate from a 10 mM source in DMSO, or DMSO-d 6 only as a control. GSK137 (11) was also added from a 10 mM source in DMSO. Purified BCL6 diluted from original stock into a buffer made up of HEPES (pH 7.5, 25 mM) and NaCl (50 mM) in distilled MS-grade water (15 µL per well) was subsequently added across the plate. Final concentrations: 1 µM protein; 50 µM SF; 50 µM GSK137. The plate was sealed, centrifuged (1 min, 1000 rpm), incubated at 20 °C for 24 h, and subsequently analyzed by intact protein LC-MS. This was performed in duplicate and average covalent modification yields were used for analysis.
Table S8. Quantitative output from intact LC-MS analysis of BCL6 BTB/POZ domain reacted with SFs after incubation of DMSO-d 6 or GSK137. Extent of displacement measured as (DModification/Modification(DMSO-d 6 treatment)). […]

In the case of `NC(=O)c1ccccc1OC1CN(C(=O)Cc2ccc(S(=O)(=O)F)cc2)C1` [2i], the Tm [1] is reported as 59.9 ± 0.4 °C, the ΔTm [1] is reported as “+1.2 °C” and the “Modification (GSK137 treatment)” value [2] is reported as 1.6%. For the same compound, the “Modification (DMSO-d6 treatment)” value [2] was 19.7%, the “Displacement Ratio” value [2] was 0.92 and the Displacement [2] was 92%. It also gave a DModification [2] of 18.1%.
In the case of `CN(C)C(=O)Nc1cccc(CNC(=O)Cc2ccc(S(=O)(=O)F)cc2)c1` [2f], the Tm [1] is reported as 66.6 ± 0.3 °C, the ΔTm [1] is reported as “+7.9 °C” and the “Modification (GSK137 treatment)” value [2] is reported as 3.8%. For the same compound, the “Modification (DMSO-d6 treatment)” value [2] was 17.6%, the “Displacement Ratio” value [2] was 0.78 and the Displacement [2] was 78%. For the same compound, the DModification [2] was 13.8%.
With `CC(=O)Nc1cccc(CNC(=O)Cc2ccc(S(=O)(=O)F)cc2)c1` [2g] the Tm [1] was 70.4 ± 0.3 °C, the ΔTm [1] was “+11.7 °C” and the “Modification (GSK137 treatment)” value [2] was 4.8%. For the same compound, the “Modification (DMSO-d6 treatment)” value [2] was 25.0%, the “Displacement Ratio” value [2] was 0.81 and the Displacement [2] was 81%. For the same compound, the DModification [2] was 20.2%.
For `O=C(Cc1ccc(S(=O)(=O)F)cc1)N1CC(Oc2ccc(F)c(F)c2)C1` [2h], the Tm [1] was 55.5 ± 0.1 °C, the ΔTm [1] was −3.2 °C and the “Modification (GSK137 treatment)” value [2] was 1.6%. For the same compound, the “Modification (DMSO-d6 treatment)” value [2] was 10.3%, the “Displacement Ratio” value [2] was 0.84 and the Displacement [2] was 84%. It also gave a DModification [2] of 8.7%.
